{
  "source": "patent US10159684B2",
  "about": "“Pharmaceutical compositions for preventing glucocorticoid-induced corneal thinning” (INSERM (INSTITUT NATIONAL DE LA SANTE ET DE LA RECHERCHE …, priority 2013, dated 2018)",
  "key": {"[1]": {"tested_on": "mice with MR overexpression in keratinocytes", "experiment": "MR antagonist given during pregnancy to mice with MR overexpression in keratinocytes (K5-MR)", "assay_type": "in vivo", "conditions": "pregnant mice received the MR antagonist all along pregnancy; two litters", "description": "To test whether the reduced epidermal thickness is related to excessive MR activation in this mouse model, we administered an antagonist of the mineralocorticoid receptor during pregnancy of the mice. […] The question arises to know which MR ligand activates the MR in this condition. Because of the absence of HSD2 (the enzyme that inactivates glucocorticoids) in the epidermis (Kenouch S, Lombes M, Delahaye F, Eugene E, Bonvalet J P, Farman N. Human skin as target for aldosterone: coexpression of mineralocorticoid receptors and 11 beta-hydroxysteroid dehydrogenase. J Clin Endocrinol Metab. 1994: 79(5): 1334-41), it is likely that MR bound ligand is endogenous corticosterone, rather than aldosterone."}, "[2]": {"tested_on": "human skin explants", "experiment": "Organotypic culture of human skin explants, epidermal thickness", "assay_type": "cell-based", "conditions": "clobetasol 100 nM plus MR blocker 10 micromolar, 6 days, air/liquid interface; FIG. 3", "description": "Human skin explants grown as organotypic culture represent a valuable model to study cx vivo epidermal homeostasis. Skin punches (3 mm) were made (accupunch) from human skin (discarded during mammary gland surgery) and placed in organotypic culture as explants (air/liquid interface) in 2 ml DMEM and 10% decomplemented charcoal-stripped foetal bovine scrum to remove steroids for 6 days, in the presence of clobetasol (100 nM) alone or together with spironolactone or canrenoate (potassium canrenoate) (10 micromolar) or solvent alone (0.1% ethanol)."}, "[3]": {"tested_on": "normal adult mice", "experiment": "Glucocorticoid-induced reduction of epidermal thickness in normal adult mice, topical application over the back pelage", "assay_type": "in vivo", "conditions": "7 days; for epidermal thickness, MR antagonist added to clobetasol: spironolactone 10 mM added to clobetasol 0.1 mM solution, FIG. 2", "description": "In another set of experiments, we used normal adult mice that were treated by application of glucocorticoid (clobetasol, as 0.1 mM ethanol solution) alone or together with spironolactone (10 mM) over the back pelage, during 7 days."}},
  "data": [
    {"smiles": "C[C@]12CCC(=O)C=C1C=C[C@@H]1[C@@H]2CC[C@@]2(C)[C@H]1CC[C@@]2(O)CCC(=O)O", "note": "[Canrenoate, potassium canrenoate]", "values": [
      {"measurement": "epidermal thickness of double-transgenic pups (histology)", "setting": "[1]", "value": "histologically normal epidermal thickness"},
      {"measurement": "skin appearance of double-transgenic pups", "setting": "[1]", "value": "normal skin appearance"},
      {"measurement": "thickness of the epidermis, MR blocker together with clobetasol", "setting": "[2]", "value": "increase the thickness of the epidermis"}
    ]},
    {"smiles": "C[C@H]1C[C@H]2[C@@H]3CCC4=CC(=O)C=C[C@]4(C)[C@@]3(F)[C@@H](O)C[C@]2(C)[C@@]1(O)C(=O)CCl", "note": "[Clobetasol, clobetasol]", "values": [
      {"measurement": "epidermal thickness, glucocorticoid alone", "setting": "[3]; clobetasol 0.1 mM ethanol solution, topical over back pelage", "value": "drastic reduction of epidermal thickness"}
    ]},
    {"smiles": "CC(=O)S[C@@H]1CC2=CC(=O)CC[C@]2(C)[C@H]2CC[C@@]3(C)[C@@H](CC[C@@]34CCC(=O)O4)[C@H]12", "note": "[spironolactone, 17-hydroxy-7α-mercapto-3-oxo-17α-pregn-4-ene-21-carboxylic acid γ-lactone acetate]", "values": [
      {"measurement": "epidermal thickness, MR antagonist added to clobetasol", "setting": "[3]; topical", "value": "reduction in epidermal thickness induced in mice by the glucocorticoid clobetasol was limited"},
      {"measurement": "epidermal thickness, MR antagonist added to clobetasol", "setting": "[3]; topical, listed as Spironolactone", "value": "significantly increased epidermal thickness"},
      {"measurement": "epidermal thickness, MR antagonist alone", "setting": "[3]; spironolactone alone, topical", "value": "had no effect"},
      {"measurement": "thickness of the epidermis, MR blocker together with clobetasol", "setting": "[2]", "value": "increase the thickness of the epidermis"}
    ]}
  ]
}
